Structures can show the parent of a compound that is named as a salt. Where two headings read alike, the source gives them in different places. Marks after values point to notes of the source that are not given here.

In this test the test system is E. coli ATCC 25922. Nature of the test: Phototoxicity test c.1) (LED array 430-435 nm, CFU count by Miles and Misra). The test is classed as cell-based, Escherichia coli. The conditions noted are these: for log reduction at 10 µM / log reduction at 50 µM: Escherichia coli, ATCC25922, light or radiation study; for log reduction at 10 µM: read-out: Effectiveness against E. Coli: Reduction in CFU in log10 at concentration of 10 μM; for log reduction at 50 µM: read-out: Effectiveness against E. Coli: Reduction in CFU in log10 at concentration of 50 μM. As for the experimental part: A sample of the bacterial cell Staphylococcus. aureus (ATCC number: 25923) or Escherichia. coli (ATCC number: 25922) was removed from a cryo-freeze culture and cultured under aerobic conditions at 37° C. and 175 rpm overnight in an orbital shaker (MAXQ4000, Thermo Scientific, Dubuque, Iowa, USA). Growth was carried out in 20 mL Todd-Hewitt broth (Carl Roth, Karlsruhe, Germany) supplemented with 0.3% of yeast extract (AppliChem, Darmstadt, Germany).
Subsequently, dilutions (0, 5, 10, […] and 20% v/v of the overnight culture) and their absorptions were measured at 600 nm in triplicate for 100 μL (Infinite 200 M Pro, Tecan, Mannedorf, Switzerland). A calibration graph (Microsoft Excel) was used to calculate the volume which was required to produce 20 mL of a culture with an absorption of 0.05 at 600 nm. The volume calculated for the overnight culture was topped up with Todd-Hewitt broth (composition as above) to 20 mL and incubated for two hours at 37° C. with constant movement (175 rpm, MAXQ4000). The cultures were then in the exponential growth phase; the absorption at 600 nm was between 0.3 and 0.45.
A 2-hour culture was divided into 1800 μL aliquots. After centrifuging at 20° C., 830 rcf, 5 min (5417R centrifuge, Eppendorf, Hamburg, Germany), the pellets were re-suspended in phosphate buffer (Dulbeccos' Modified Phosphate Saline, DPBS, Sigma-Aldrich) with either 10 or 50 μM of the corresponding photosensitizer, wherein the final volume was kept at 1800 μL.
The solutions obtained were immediately incubated on the orbital shaker (see above for parameters) for 5 or 25 minutes.
Three controls were run at the same time for each photosensitizer. The “light only” control contained DPBS without photosensitizer. The “photosensitizer only” (“PS only”) control was incubated like the PDI samples, but not irradiated and kept strictly in darkness. A further control (double negative, “Co−/−”), received neither light nor photosensitizer.
After the incubation, duplicates of the samples (500 μL each) were transferred into a 24-well microtitre plate (Cellstar, Greiner Bio-One, Frickenhausen, Germany). The “PS only” and “Co −/−” samples were placed in their own microtitre plate which was packed in aluminium foil so as to be lightproof.
The irradiation was carried out under constant shaking (MTS4, IKA, Staufen, Germany, 175 rpm) from below on a LED array with maximum homogeneity of the lighting surface. All of the controls were shaken in the same manner. The technical data for the light source are shown in Table 2; the total dose of light applied was 33.8 J/cm^2.
The determination of the colony forming units (CFU) was carried out in accordance with the method published by Miles and Misra (Miles, A A; Misra, S S, Irwin, J O (1938 Nov.). “The estimation of the bactericidal power of the blood” The Journal of hygiene 38 (6): 732-49). In this regard, serial dilutions (1:10) of the corresponding bacterial suspension were produced in DPBS. 5×10 μL of each bacterial dilution was then dripped onto Todd-Hewitt plates (with broth, additional 1.5% agar (Agar-Agar, Kobe I, Roth, Karlsruhe, Germany) and incubated at 37° C. for 24 h. Next, the number of surviving colony forming units was determined. All of the tests were carried out four times.
The photosensitizers were tested against the bacterial strain E. coli ATCC 25922. FIGS. 1-20 show the measured surviving colony forming units (CFU).
The average reference control (arithmetic mean with standard deviation) (no light, no PS) was 3.6×10^8/mL. The logarithmic reduction after illumination is shown with respect to the reference control. The respective upper value, indicated by a *, refers to an incubation period of 5 min and the respectively lower value, indicated by a #, refers to an incubation period of 25 min.

The mark [1] stands for this setting: 5 min, 10 μM, incubation period 5 min (upper value, *), light dose 33.8 J/cm^2, approx. 435 nm, 60 min at 9.4 mW/cm^2, vs reference control.
[2] abbreviates: 5 min, 50 μM, incubation period 5 min (upper value, *), light dose 33.8 J/cm^2, approx. 435 nm, 60 min at 9.4 mW/cm^2, vs reference control.
The mark [3] stands for this setting: 25 min, 10 μM, incubation period 25 min (lower value), light dose 33.8 J/cm^2, approx. 435 nm, 60 min at 9.4 mW/cm^2, vs reference control.
Setting [4] is: 25 min, 50 μM, incubation period 25 min (lower value), light dose 33.8 J/cm^2, approx. 435 nm, 60 min at 9.4 mW/cm^2, vs reference control.

For the compound `NCCOc1ccc(/C=C/C(=O)CC(=O)/C=C/c2ccc(OCCN)cc2)cc1` [Curcumin 0 hydrochloride], the log reduction at 10 µM under setting [1] was over 4 and the log reduction at 10 µM under setting [3] was over 5. The log reduction at 50 µM is, setting by setting: under setting [2], over 6; under setting [4], over 6.
As for `COc1cc(OCCN)ccc1/C=C/C(=O)CC(=O)/C=C/c1ccc(OCCN)cc1OC` [Curcumin 01b hydrochloride], the log reduction at 10 µM is over 2 under setting [1] and over 3 under setting [3]. Further, the log reduction at 50 µM was over 5 under setting [2] and over 7 under setting [4].
For `COc1cc(/C=C/C(=O)CC(=O)/C=C/c2cc(I)c(OCCN)c(OC)c2)cc(I)c1OCCN` [Curcumin 01c hydrochloride], in that order: over 2, over 2, over 3 and over 4.
The like results for `Cc1cc(/C=C/C(=O)CC(=O)/C=C/c2ccc(OCCN)c(C)c2)ccc1OCCN` [Curcumin 01e hydrochloride] were, in that order, over 5, over 5, over 4 and over 7.
For `COc1cc(/C=C/C(=O)CC(=O)/C=C/c2ccc(OCCOCCN)c(OC)c2)ccc1OCCOCCN` [Curcumin 02 hydrochloride], in that order: over 2, over 4, over 6 and over 7.
For `NCCCOc1ccc(/C=C/C(=O)CC(=O)/C=C/c2ccc(OCCCN)c(OCc3ccccc3)c2)cc1OCc1ccccc1` [Curcumin 04 hydrochloride], the log reduction at 10 µM under setting [1] was over 1 and the log reduction at 10 µM under setting [3] is over 3. Further, the log reduction at 50 µM under setting [2] was over 3 and the log reduction at 50 µM under setting [4] is over 4.
`NCCOc1cc(/C=C/C(=O)CC(=O)/C=C/c2cc(OCCN)c(OCCN)c(OCCN)c2)cc(OCCN)c1OCCN` [Curcumin 05 hydrochloride]: the log reduction at 10 µM was over 4 under setting [1] and over 4 under setting [3]. In addition, the log reduction at 50 µM by setting is: under setting [2], over 7; under setting [4], over 6.
On to `NCCOc1cc(/C=C/C(=O)CC(=O)/C=C/c2ccc(OCCOCCOCCO)c(OCCN)c2)ccc1OCCOCCOCCO` [Curcumin 08 hydrochloride], for which the log reduction at 50 µM under setting [2] is about 1 and the log reduction at 50 µM under setting [4] was over 1.
The like results for `COc1cc(/C=C/C(=O)C2CCC/C(=C\c3ccc(OCCN)c(OC)c3)C2=O)ccc1OCCN` (stereo not shown) [Curcumin 09b hydrochloride] were, in that order, over 1 and over 2.
`COc1cc(/C=C/C(=O)CC(=O)/C=C/c2ccc(OCCC[N+](C)(C)C)c(OC)c2)ccc1OCCC[N+](C)(C)C` [Curcumin 10a hydrochloride, 3,3′-(4,4′-((1E,6E)-3,5-dioxohepta-1,6-diene-1,7-diyl)bis(2-methoxy-4,1-phenylene))bis(oxy)bis(N,N,N-trimethylpropan-1-aminium) chloride]: for the setting “5 min”, the log reduction at 10 µM is over 1 and the log reduction at 50 µM is over 5. Further, where the note is “25 min”, the log reduction at 10 µM is over 1 and the log reduction at 50 µM is over 5.
For the compound `COc1cc(/C=C/C(=O)CC(=O)/C=C/c2ccc(OCCNC(=N)N)c(OC)c2)ccc1OCCNC(=N)N` [Curcumin 10b hydrochloride], the log reduction at 10 µM under setting [1] was over 5 and the log reduction at 10 µM under setting [3] was over 4. Besides, the log reduction at 50 µM reads like this: under setting [2], over 7; under setting [4], over 6.
For `COc1cc(/C=C/C(=O)CC(=O)/C=C/c2ccc(OCCC[n+]3ccccc3)c(OC)c2)ccc1OCCC[n+]1ccccc1` [Curcumin 10c hydrochloride, 1,1′-(3,3′-(4,4′-((1E,6E)-3,5-dioxohepta-1,6-diene-1,7-diyl)bis(2-methoxy-4,1-phenylene))bis(oxy)bis(propane-3,1-diyl))dipyridinium chloride], in that order: over 4, over 5, over 7 and over 7.
For `COc1ccc(/C=C/C(=O)CC(=O)/C=C/c2ccc(OCCN)c(OC)c2)cc1OC` [Curcumin 11b hydrochloride], in that order: about 1, over 1, about 3 and over 3.
The like results for `NCCOc1ccc(/C=C/C(=O)CC(=O)/C=C/c2ccc(OCCN)c3ccccc23)c2ccccc12` [Curcumin 12a hydrochloride] were, in that order, over 1, over 4, over 6 and over 6.
`COc1ccc(/C=C/C(=O)CC(=O)/C=C/c2ccc(OCCN)c(OCCN)c2)cc1OCCN` [Curcumin 13b hydrochloride]: the log reduction at 10 µM runs as follows: under setting [1], over 7; under setting [3], over 7. In addition, the log reduction at 50 µM reads like this: under setting [2], over 7; under setting [4], over 7.
Consider `COc1cc(/C(C)=C(\C)C(=O)CC(=O)/C(C)=C(\C)c2ccc(OCCN)c(OC)c2)ccc1OCCN` [Curcumin 14b hydrochloride], for which the log reduction at 50 µM under setting [4] is over 1.
“(1E,6E)-1,7- bis(4-(2- aminoethoxy)-3- methoxy- phenyl)hepta-1,6- diene-3,5-dione hydrochloride- zinc complex [Curcumin 01a zinc complex]”: the “Effectiveness against E. Coli: Reduction in CFU in log10 at concentration of 10 μM” value (10 μM, incubation period 5 min (upper value, *), light dose 33.8 J/cm^2, approx. 435 nm, 60 min at 9.4 mW/cm^2, vs reference control) was >3* log10 and the “Effectiveness against E. Coli: Reduction in CFU in log10 at concentration of 10 μM” value (10 μM, incubation period 25 min (lower value), light dose 33.8 J/cm^2, approx. 435 nm, 60 min at 9.4 mW/cm^2, vs reference control) is listed as over 2 log10. Besides, the “Effectiveness against E. Coli: Reduction in CFU in log10 at concentration of 50 μM” value (50 μM, incubation period 5 min (upper value, *), light dose 33.8 J/cm^2, approx. 435 nm, 60 min at 9.4 mW/cm^2, vs reference control) was >5* log10 and the “Effectiveness against E. Coli: Reduction in CFU in log10 at concentration of 50 μM” value (50 μM, incubation period 25 min (lower value), light dose 33.8 J/cm^2, approx. 435 nm, 60 min at 9.4 mW/cm^2, vs reference control) is recorded as over 5 log10.
